Literature values, collected in patent US20080274094A1, “Molecular Complex Comprising Arbutine, Ascorbic Acid, Oleuropeina or Its Derivatives Thereof and Related Uses In Medical Field” (MED CARE S.R.L., priority 2005, published 2008).

Columns and labels:
[1] = test system: TNF alpha receptors; conditions: Biochem Pharmacol 1999, Mancini et al.
[2] = test system: cultured human melanocytes; conditions: Pigment Cell Res. 1998; mechanism other than induction of tyrosinase activity

Structure (SMILES) | effect on TNF alpha receptors [1] | pigmentation of cultured human melanocytes [2]
Cc1ccc(C(=O)Nc2ccc(S(=O)(=O)O)c3cc(S(=O)(=O)O)cc(S(=O)(=O)O)c23)cc1NC(=O)c1cccc(NC(=O)Nc2cccc(C(=O)Nc3cc(C(=O)Nc4ccc(S(=O)(=O)O)c5cc(S(=O)(=O)O)cc(S(=O)(=O)O)c45)ccc3C)c2)c1 [suramin] | inhibitory effect | 
OC[C@H]1O[C@@H](Oc2ccc(O)cc2)[C@H](O)[C@@H](O)[C@@H]1O [Arbutin] |  | increases the pigmentation
